Measured values taken from ChEMBL document CHEMBL1201862, “PubChem BioAssay data set” (2004).
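Assay format: 96-well plates, 48-hour exposure. Abbreviation: GI50, concentration required for 50% inhibition of growth.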 Active and inactive are the calls of the source. Cut-off read from the data, not from the text of the source: active = GI50 up to about 1.1 µM and inactive = higher.

Assays:
Assay in all cases: NCI-60 cell line screen, 48 h
[1] = system: UACC-62
[2] = system: M14
[3] = system: HL-60
[4] = system: ACHN
[5] = system: 786-0
[6] = system: SNB-19
[7] = system: A549
[8] = system: A498
[9] = system: IGROV-1
[10] = system: RPMI-8226
[11] = system: UO-31
[12] = system: DMS-273
[13] = system: KM12
[14] = system: SF-268
[15] = system: NCI-H522
[16] = system: RXF 393
[17] = system: SF-539

Measured: GI50

O=C1Nc2ccccc2N/C1=C\C(=O)c1ccccc1O
inactive: [1] > 100 µM | [2] > 100 µM | [3] > 100 µM | [4] > 100 µM | [5] > 100 µM | [6] > 100 µM | [7] > 100 µM | [8] > 100 µM | [9] > 100 µM | [10] > 100 µM | [11] > 100 µM | [12] > 100 µM | [13] > 100 µM | [14] > 100 µM | [15] > 100 µM | [16] > 100 µM

O=C1NC2(CCCCCC2)C2CCCCCCC12O (stereo unspecified)
inactive: [1] > 100 µM | [2] > 100 µM | [3] > 100 µM | [4] > 100 µM | [5] > 100 µM | [6] > 100 µM | [7] > 100 µM | [8] > 100 µM | [9] > 100 µM | [11] > 100 µM | [12] > 100 µM | [17] > 100 µM | [13] > 100 µM | [14] > 100 µM | [15] > 100 µM | [16] > 100 µM

COc1cc2c(cc1OC)CC(=O)Nc1cc(OC)c(OC)cc1CC2
inactive: [1] 36.1 µM | [2] 36.1 µM | [3] 20.8 µM | [4] > 100 µM | [5] 49.2 µM | [6] 99.8 µM | [7] 63 µM | [8] 44.5 µM | [9] > 85.9 µM | [10] 2.89 µM | [11] 61.9 µM | [12] 24.8 µM | [17] 33.2 µM | [13] 43.6 µM | [14] 80.9 µM | [15] 17.3 µM

C[C@]12CCC(=O)C(O)=C1CC[C@@H]1C2CC[C@]2(C)Nc3c(cnn3-c3ccccc3)CC12 (stereo partly specified)
inactive: [1] 77.6 µM | [2] > 100 µM | [3] 23.8 µM | [4] > 100 µM | [5] > 100 µM | [7] > 100 µM | [8] > 100 µM | [9] > 100 µM | [10] 27.4 µM | [11] 26.3 µM | [12] 56.4 µM | [17] 67.6 µM | [13] 31.7 µM | [16] 55.1 µM

NC(CCCNCc1ccccc1O)C(=O)O (stereo unspecified)
inactive: [1] > 100 µM | [2] > 100 µM | [3] > 100 µM | [4] > 100 µM | [5] > 100 µM | [6] > 100 µM | [7] > 100 µM | [8] > 100 µM | [9] > 100 µM | [10] > 100 µM | [11] > 100 µM | [12] > 100 µM | [17] > 100 µM | [13] > 100 µM | [14] > 100 µM | [15] > 100 µM

CCOC(=O)C(C(=O)OCC)=C1C=C(c2ccccc2)c2ccccc21
inactive: [1] > 100 µM | [2] 35.9 µM | [3] 20.5 µM | [4] 41 µM | [5] 28.5 µM | [6] > 100 µM | [7] 79.3 µM | [8] 13.4 µM | [9] > 100 µM | [10] 16.6 µM | [11] > 100 µM | [12] 51.5 µM | [17] 62.7 µM | [13] 37.4 µM | [14] > 100 µM | [16] 40.2 µM

CC(=O)Nc1ccc(S(=O)(=O)N/N=C/CN2C(=O)c3ccccc3C2=O)cc1
inactive: [1] > 100 µM | [2] > 100 µM | [3] > 100 µM | [4] > 100 µM | [5] > 100 µM | [6] > 100 µM | [7] > 100 µM | [8] > 100 µM | [9] > 100 µM | [10] > 100 µM | [11] > 100 µM | [12] > 100 µM | [17] > 100 µM | [13] > 100 µM | [14] > 100 µM | [15] > 100 µM | [16] 85.1 µM

O=c1c2cccc3cccc(c4oc5c6cccc7cccc(c(=O)c5c14)c76)c32
inactive: [1] 12.8 µM | [2] 12.4 µM | [3] 9.18 µM | [4] 11.6 µM | [5] 11.2 µM | [6] 11.6 µM | [7] 2.06 µM | [8] > 100 µM | [9] 16.9 µM | [10] 12.8 µM | [11] 13.5 µM | [12] 12.8 µM | [17] 15.8 µM | [13] 13.8 µM | [14] 13 µM | [15] 5.4 µM | [16] 11.2 µM

O=c1[nH]c(=O)n(C2OC(CO)C(O)C2O)cc1OCc1ccccc1 (stereo unspecified)
inactive: [1] > 100 µM | [2] > 100 µM | [3] > 52.8 µM | [4] > 100 µM | [5] > 100 µM | [6] > 100 µM | [7] > 87.3 µM | [8] > 100 µM | [9] > 100 µM | [10] > 57.9 µM | [11] > 100 µM | [12] > 75.9 µM | [17] > 100 µM | [13] > 100 µM | [14] > 100 µM | [15] > 100 µM | [16] > 57.4 µM

CCN(CC)CCN1CCc2c([nH]c3ccccc23)C1c1cccnc1 (stereo unspecified)
inactive: [1] > 100 µM | [2] > 100 µM | [3] 99.3 µM | [4] > 100 µM | [5] > 100 µM | [6] > 100 µM | [7] > 100 µM | [8] > 100 µM | [9] > 100 µM | [10] > 100 µM | [11] 37.2 µM | [12] > 100 µM | [17] > 100 µM | [13] > 100 µM | [14] > 100 µM | [15] > 100 µM

COc1ccc(C2=Nc3ccccc3N=C(SC)C2)cc1
inactive: [1] > 100 µM | [2] 59.7 µM | [3] 16.3 µM | [4] 69.8 µM | [5] 38.6 µM | [6] > 100 µM | [7] 95.1 µM | [8] > 100 µM | [9] > 100 µM | [11] 47.3 µM | [12] 73.6 µM | [17] > 100 µM | [13] 27.5 µM | [14] > 100 µM | [15] 22.9 µM | [16] 62.5 µM

N#CC(/C(=N/NC(=N)N)C(=O)Nc1ccccc1[N+](=O)[O-])c1nc(-c2ccc([N+](=O)[O-])cc2)cs1 (stereo unspecified)
inactive: [1] > 100 µM | [2] > 100 µM | [3] > 100 µM | [4] > 100 µM | [5] > 100 µM | [6] > 100 µM | [7] > 100 µM | [8] > 100 µM | [9] > 100 µM | [10] > 100 µM | [11] > 100 µM | [12] > 100 µM | [17] > 100 µM | [13] > 100 µM | [14] > 100 µM | [15] > 100 µM | [16] > 100 µM

Cn1cnc2nc(Cl)nc(NC(C)(C)C(C)(C)O)c21
inactive: [1] > 100 µM | [2] > 100 µM | [3] > 100 µM | [4] > 100 µM | [5] > 100 µM | [6] > 100 µM | [7] > 100 µM | [8] > 100 µM | [9] > 100 µM | [10] > 100 µM | [11] > 100 µM | [12] > 100 µM | [17] > 100 µM | [13] > 100 µM | [14] > 100 µM | [15] 72.4 µM | [16] > 100 µM

C=CCNC(=S)N/C=C1\C(=O)Oc2ccccc2C1=O
inactive: [1] 46.3 µM | [2] 63.4 µM | [3] > 100 µM | [4] 32.1 µM | [5] 55 µM | [6] 59.4 µM | [7] 93.8 µM | [8] 56.8 µM | [9] 41.6 µM | [10] > 100 µM | [11] 27.5 µM | [12] > 100 µM | [17] 55.5 µM | [13] 87.5 µM | [14] 36 µM | [15] 65.6 µM | [16] 19.3 µM

C/C(CC(=O)Nc1ccc([N+](=O)[O-])cc1)=N\Nc1ccc([N+](=O)[O-])cc1[N+](=O)[O-]
inactive: [1] 49 µM | [2] > 100 µM | [3] 31.9 µM | [4] 10.8 µM | [5] > 100 µM | [7] 44.7 µM | [8] 59.8 µM | [9] 71.8 µM | [10] 56.4 µM | [11] 20.6 µM | [12] 18.5 µM | [17] 41 µM | [13] 29.3 µM | [14] 62.1 µM | [15] 25.9 µM | [16] > 100 µM

CC(=O)SC(SC(C)=O)SC(C)=O
inactive: [1] 84.1 µM | [2] > 100 µM | [3] 51.3 µM | [4] > 100 µM | [5] > 100 µM | [6] > 100 µM | [7] 37.2 µM | [8] > 100 µM | [9] > 100 µM | [11] > 100 µM | [12] > 100 µM | [17] > 100 µM | [13] > 100 µM | [14] > 100 µM | [15] 20.7 µM | [16] > 100 µM

O=C(NCCO)c1ccc([N+](=O)[O-])cc1
inactive: [1] > 100 µM | [2] > 100 µM | [3] > 100 µM | [5] > 100 µM | [6] > 100 µM | [7] > 100 µM | [8] > 100 µM | [9] > 100 µM | [10] > 100 µM | [11] > 100 µM | [12] > 100 µM | [17] > 100 µM | [13] > 100 µM | [14] > 100 µM | [15] > 100 µM | [16] > 100 µM
